According to patent publication US6892140B1, “Immunogenic cancer peptides and uses thereof” (Enteron, Inc., priority 2000, dated 2005):
Entries after “also recorded” stand apart in the source; their conditions may differ. Ends that are not written are not given here.

Experiments:
[1] = system: serum IgG antibodies from patients with squamous cell carcinoma and from controls; assay: Immunoassay 2: serum IgG specific for biotinylated peptide antigens, squamous cell carcinoma patients vs persons not known to have cancer; format: binding, human; conditions: for sera from squamous cell carcinoma patients with IgG antibody level above control mean background+2.5 SD: 45 squamous cell carcinoma sera; for sera from persons not known to have cancer: IgG antibody level relative to control mean background+2.5 SD: control population
Protocol: Using immunoassay 2 (see Materials and Methods) the following results were obtained.
Immunoassay Method 2: Used to Detect Serum IgA, IgD, IgE, IgG, and IgM Antibodies Specific for Individual Peptide Antigens
NeutrAvidin^a conjugated paper disc, 6 mm.
Serum diluent: 10 mM sodium phosphate, pH 7.20, with 150 MM sodium chloride, and 0.20 mg/mL sodium azide.
NeutrAvidin^a coated white microtiter plate, stored in 10 mM Tris-HCl, pH 7.50, containing 600 mM sodium chloride and 0.2 mg/mL thimerosal.
Plate blocking solution: 10 mM sodium phosphate, pH 7.20, containing 150 mM sodium chloride, 100 mg/mL Triton X-405, and 0.2 mg/mL thimerosal.
Plate wash buffer: 20 mM Tris chloride, pH 7.4, containing 150 mM sodium chloride, 0.5 mg/mL Triton X-405 and 0.2 mg/mL thimerosal.
(§1) Peptide solution: 0.06 μg/mL peptide dissolved in 20 mM Tris chloride, pH 7.4, containing 600 mM sodium chloride, 30 mg/mL polyethylene glycol 4000, 1 mM ethylenediaminetetraacetic acid, 1 mM ethylene glycol-bis(§-aminoethyl ether)N,N,N′,N′-tetraacetic acid, 0.5 mg/mL Triton X405 and 0.2 mg/mL thimerosal.
as §1, with “Control peptide” for “Peptide”, “0.013” for “0.06”, “μg/mL control” for “μg/mL”, “X-405” for “X405”
Conjugate solution: 0.100 μg/mL alkaline phosphatase conjugated polyclonal goat anti human IgG dissolved in 20 mM Tris-HCl, pH 7.40, with 600 mM sodium chloride, 30.0 mg/mL PEG-4000, 3.0 mg/mL BSA, 0.5 mg/mL Triton X-405 and 0.20 mg/mL thimerosal.
Substrate solution: 25.2 μg/mL 4-methylumbelliferyl phosphate dissolved in 180 mM 2-amino-2-methyl-1-propanol, pH 9.50, containing 123 μM magnesium chloride.
Serum preparation: • 1. Add 100 μL serum to 15 NeutrAvidin^a coated paper discs in a suitably sized test tube. • 2. Incubate with gentle mixing at ambient temperature for 16-20 hours. • 3. Add 7.900 mL of serum diluent and mix gently for 30 minutes. • 4. Vortex the tube gently to completely release the serum from the discs. • 5. Remove the treated serum from the discs and transfer it to a suitable storage tube. • 6. Store the treated serum at 4 EC.
Assay procedure: • 1. Two days before assay, aspirate the storage solution from the NeutrAvidin^a coated white microtiter plate and add 200 μL plate blocking solution to each well. • 2. Cover the plate and incubate at ambient temperature for 16-20 hours. • 3. One day before assay. wash the blocked plate three times with plate wash buffer, approximately 275 μL per well per wash. […] Read the plate at 30 and 60 minutes in a fluorescence microtiter plate reader set at 365 nm excitation and 450 nm emission. […]

[2] = system: antibodies in sera from prostate cancer patients; assay: Prostate cancer serum test of cell surface protein peptides (Table 3); format: binding, human; set-up: key: +: positive or negative reactivity between peptides representing modified peptide regions of cancer cell surface protein molecules with antibodies in sera from prostate cancer patients; −: positive or negative reactivity between peptides representing modified peptide regions of cancer cell surface protein molecules with antibodies in sera from prostate cancer patients; conditions: reactivity of peptide with antibodies in sera from prostate cancer patients
Excerpt: Table 3 third column illustrates the positive or negative reactivity between peptides representing modified peptide regions of cancer cell surface protein molecules with antibodies in sera from prostate cancer patients. The presence or absence in prostate cancer cells of the 41 tested molecules is shown as + or − in column four.
Sixth, employing the immunoassays disclosed herein, each biotinylated peptide is screened as an antigen against sera or other relevant biological fluids containing antibodies taken from one of the following groups: cancer patients, patients with benign lesions or inflammatory conditions, and healthy subjects. Peptides can also be screened using tumor-infiltrating lymphocytes or peripheral blood-born lymphocytes from cancer patients. Candidate peptides we consider cancer-specific or cancer-associated depend on whether they fit the following definitions.

| Substance | sera from squamous cell carcinoma patients with IgG antibody level above control mean background+2.5 SD [1] | sera from persons not known to have cancer: IgG antibody level relative to control mean background+2.5 SD [1] | Prostate Cancer Serum Test Result [2] |
| --- | --- | --- | --- |
| rNvs: EGFR peptide (portion of SEQ ID NO: 67), deglycosylated asparagine N (RNVS; also: deglycosylated asparagine) | 2 of 45 | below the mean background+2.5 standard deviations; also recorded: below the mean background plus 4 standard deviations |  |
| aemNgSk: TROP1 peptide with the amino acid sequence aemNgSk (AEMNGSK; not fully specified) | 6 of 45 | one |  |
| ekNgs: Tested peptide of cell surface protein fgfr2 (EKNGS; not fully specified) |  |  | − |
| pdNqt: Tested peptide of cell surface protein integrin beta 5 (PDNQT; also: biotin label at one end) |  |  | − |
| saNrs: Tested peptide of cell surface protein CD66 (SANRS; not fully specified) |  |  | + |
| kNvtNrs: Tested peptide of cell surface protein integrin beta I (KNVTNRS; also: biotin label at one end) |  |  | − |
| trNvs: Tested peptide of cell surface protein pdgfr beta (TRNVS; not fully specified) |  |  | − |
| skNqs: Tested peptide of cell surface protein CD66 (SKNQS; not fully specified) |  |  | − |
| esNrt: Tested peptide of cell surface protein fgfr1 (ESNRT; not fully specified) |  |  | − |
| meNkt: Tested peptide of cell surface protein integrin alpha 3 (MENKT; also: biotin label at one end) |  |  | + |
